# Reference: patent US20120196899A1, “METHODS AND PRODUCTS FOR TREATING INFLAMMATION” (Rock Creek Pharmaceuticals, Inc., priority 2010, published 2012)
# Where two headings read alike, the source gives them in different places.
# Test: Plasma toxicokinetics after single i.v. bolus
# Format: in vivo, Sprague-Dawley rats
# Conditions: for concentration at 4 h / concentration at 6 h / concentration at 1 h / concentration at 2 h / concentration at 8 h / concentration at 0.5 h / half-life: Sprague-Dawley, rat, plasma; for concentration at 4 h / concentration at 6 h / concentration at 1 h / concentration at 2 h / concentration at 8 h / concentration at 0.5 h: intravenous; for half-life: iv
# Method: Six rats (3 males and 3 females) were dosed per dose group. […] Plasma and brain homogenates were stored at −80° C. until analysis.
# An additional 48 rats (24 males and 24 females) received a single intravenous dose via the tail vein at the same doses as mentioned above. At 30 and 360 minutes post administration, 6 rats (3 males and 3 females) per dose group, per time point were euthanized, bled via cardiac puncture, and perfused, and brains were collected. The brains were homogenized. Blood was spun, and plasma was collected. Plasma and brain homogenate were stored at −80° C.
# Four aliquots of each dose level formulation were collected and stored at −80° C. The test compound, corresponding dose level, number of animals, and sample collection times for Phase I of the study are shown in Table 3. The test compound, corresponding dose level, number of animals, and sample collection times for Phase II of the study are shown in Table 4. The physical signs of each animal were monitored following administration of the test compound.
# The animals were weighed prior to dosing and received a single i.v. dose of either test compound at a volume of 5 mL/kg. Blood was collected via the venus plexus (retro-orbital) into tubes containing (K2) EDTA. No more than 0.5 mL was collected per time point. […] The brain was removed, weighed, homogenized in sterile 0.9% saline at a volume equal to its weight, and stored at −80° C.
# Plasma was separated according to the instructions for MICROTAINER® brand collection tubes (3 minutes, 2000×g). Plasma was decanted into microfuge tubes and stored at −80° C. Remaining test compound was stored at −80° C.
# The signal was optimized for each compound by electrospray ionization (ESI) positive or negative ionization mode. A single ion mode (SIM) scan was used to optimize the Fragmentor for the precursor ion and a product ion analysis was used to identify the best fragment for analysis and to optimize the collision energy. The fragment which gave the most sensitive and specific signal was chosen.
# Sample preparation. […] The amount of the test agent in the supernatant was determined by liquid chromatography tandem mass spectrometry (LC/MS/MS).
# Analysis. Samples were analyzed by LC/MS/MS using an Agilent 6410 mass spectrometer coupled with an Agilent 1200 high pressure liquid chromatography (HPLC) and a CTC PAL chilled autosampler, all controlled by MassHunter software (Agilent). After separation on a hydrophilic interaction liquid chromatography (HILIC) HPLC column (Sepax) using an acetonitrile-ammonium acetate/acetic acid gradient system, peaks were analyzed by mass spectrometry (MS) using ESI ionization in multiple reaction monitoring (MRM) mode. MassHunter software was used to calculate the concentration of the test compounds in samples from the peak area using the appropriate calibration curves.
# Calibration samples. Calibration curves were determined for both rat plasma and brain homogenate. Calibration samples were prepared by diluting a 50× stock solution of the test compound in PBS with blank matrix to the appropriate concentration and these samples were prepared as described above in the sample preparation.
# [1] = 0.75 mg/kg, Concentration of anatabine in rat plasma, Anatabine 0.75 mg/kg, rat plasma, rats of group 3
# [2] = 0.75 mg/kg, Concentration of anatabine in rat plasma, Anatabine 0.75 mg/kg, rat plasma, rats of group 4
# [3] = 1 mg/kg, Concentration of anatabine in rat plasma, Anatabine 1.0 mg/kg, rat plasma, rats of group 5
# [4] = 1 mg/kg, Concentration of anatabine in rat plasma, Anatabine 1.0 mg/kg, rat plasma, rats of group 6
# [5] = both sexes, 0.1 mg/kg, Anatabine 0.1 mg/kg, male and female, read-out: Avg. Conc. rat plasma, combined male and female
# [6] = both sexes, 0.1 mg/kg, Concentration of anatabine in rat plasma, Anatabine 0.1 mg/kg, Rat Plasma, individual rats
# [7] = both sexes, 0.75 mg/kg, Anatabine 0.75 mg/kg, male and female, read-out: Avg. Conc. rat plasma, combined male and female
# [8] = both sexes, 1 mg/kg, Anatabine 1.0 mg/kg, male and female, read-out: Avg. Conc. rat plasma, combined male and female
compound,measurement,setting,value
"C1=CCC(c2cccnc2)NC1 (racemic) [Anatabine, 1,2,3,6-tetrahydro-[2,3′]bipyridinyl]",Avg. Conc. rat plasma,"Anatabine 0.1 mg/kg, female, 8 hr",<LLQ
same,Avg. Conc. rat plasma,"Anatabine 0.1 mg/kg, female, 24 hr",<LLQ
same,"Avg. Conc. rat plasma, combined male and female","Anatabine 0.1 mg/kg, male and female, 8 hr",<LLQ
same,"Avg. Conc. rat plasma, combined male and female","Anatabine 0.1 mg/kg, male and female, 24 hr",<LLQ
same,Avg. Conc. rat plasma,"Anatabine 0.1 mg/kg, male, 6 hr (1st 6 hr line)",<LLQ
same,Avg. Conc. rat plasma,"Anatabine 0.1 mg/kg, male, 8 hr",<LLQ
same,Avg. Conc. rat plasma,"Anatabine 0.1 mg/kg, male, 24 hr",<LLQ
same,Avg. Conc. rat plasma,"Anatabine 0.75 mg/kg, female, 24 hr",<LLQ
same,"Avg. Conc. rat plasma, combined male and female","Anatabine 0.75 mg/kg, male and female, 24 hr",<LLQ
same,Avg. Conc. rat plasma,"Anatabine 0.75 mg/kg, male, 24 hr",<LLQ
same,Avg. Conc. rat plasma,"Anatabine 1.0 mg/kg, female, 24 hr",<LLQ
same,"Avg. Conc. rat plasma, combined male and female","Anatabine 1.0 mg/kg, male and female, 24 hr",<LLQ
same,Avg. Conc. rat plasma,"Anatabine 1.0 mg/kg, male, 24 hr",<LLQ
same,concentration at 4 h,"0.1 mg/kg, Concentration of anatabine in rat plasma, Anatabine 0.1 mg/kg, Rat Plasma, individual rats",3 ng/mL
same,concentration at 6 h,"0.1 mg/kg, Concentration of anatabine in rat plasma, Anatabine 0.1 mg/kg, rat plasma, 6 hr, rats 2A-2C",3 ng/mL
same,concentration at 1 h,[1],153 ng/mL
same,concentration at 1 h,[2],146 ng/mL
same,concentration at 2 h,[1],73 ng/mL
same,concentration at 2 h,[2],89 ng/mL
same,concentration at 4 h,[1],29 ng/mL
same,concentration at 4 h,[2],45 ng/mL
same,concentration at 8 h,"0.75 mg/kg, Concentration of anatabine in rat plasma, Anatabine 0.75 mg/kg, rat plasma, 8 hr, rats of group 3",8 ng/mL
same,concentration at 8 h,"0.75 mg/kg, Concentration of anatabine in rat plasma, Anatabine 0.75 mg/kg, rat plasma, 8 hr, rats of group 4",10 ng/mL
same,concentration at 0.5 h,"1 mg/kg, Concentration of anatabine in rat plasma, Anatabine 1.0 mg/kg, rat plasma, 0.5 hr, rats of group 5",288 ng/mL
same,concentration at 0.5 h,"1 mg/kg, Concentration of anatabine in rat plasma, Anatabine 1.0 mg/kg, rat plasma, 0.5 hr, rats of group 6",222 ng/mL
same,concentration at 1 h,[3],257 ng/mL
same,concentration at 1 h,[4],218 ng/mL
same,concentration at 2 h,[3],121 ng/mL
same,concentration at 2 h,[4],147 ng/mL
same,concentration at 4 h,[3],36 ng/mL
same,concentration at 4 h,[4],73 ng/mL
same,concentration at 6 h,"1 mg/kg, Concentration of anatabine in rat plasma, Anatabine 1.0 mg/kg, rat plasma, 6 hr, rats of group 6",33 ng/mL
same,concentration at 8 h,"1 mg/kg, Concentration of anatabine in rat plasma, Anatabine 1.0 mg/kg, rat plasma, 8 hr, rats of group 5",8 ng/mL
same,concentration at 8 h,"1 mg/kg, Concentration of anatabine in rat plasma, Anatabine 1.0 mg/kg, rat plasma, 8 hr, rats of group 6",19 ng/mL
same,t1/2,"anatabine 0.1 mg/kg single i.v., female rats",1.64 ± 0.59 h
same,t1/2,"anatabine 0.75 mg/kg single i.v., male rats",1.64 ± 0.12 h
same,t1/2,"anatabine 0.75 mg/kg single i.v., rat plasma, M + F",1.68 ± 0.09 h
same,t1/2,"anatabine 1.0 mg/kg single i.v., rat plasma, M + F",1.64 ± 0.25 h
same,concentration at 0.5 h,"both sexes, 0.1 mg/kg, Anatabine 0.1 mg/kg, male and female, 0.5 hr (1st 0.5 hr line), n=12, read-out: Avg. Conc. rat plasma, combined male and female",22.9 ng/mL
same,concentration at 1 h,[5],8 ng/mL
same,concentration at 2 h,[5],8.7 ng/mL
same,concentration at 4 h,[5],5.2 ng/mL
same,concentration at 6 h,"both sexes, 0.1 mg/kg, Anatabine 0.1 mg/kg, male and female, 6 hr (1st 6 hr line), n=6, read-out: Avg. Conc. rat plasma, combined male and female",4.3 ng/mL
same,concentration at 6 h,"both sexes, 0.1 mg/kg, Anatabine 0.1 mg/kg, male and female, 6 hr (2nd 6 hr line), n=4, read-out: Avg. Conc. rat plasma, combined male and female",4.5 ng/mL
same,concentration at 1 h,[6],10 ng/mL
same,concentration at 2 h,[6],6 ng/mL
same,concentration at 0.5 h,"both sexes, 0.75 mg/kg, Anatabine 0.75 mg/kg, male and female, 0.5 hr (1st 0.5 hr line), n=12, read-out: Avg. Conc. rat plasma, combined male and female",257 ng/mL
same,concentration at 0.5 h,"both sexes, 0.75 mg/kg, Anatabine 0.75 mg/kg, male and female, 0.5 hr (2nd 0.5 hr line), n=6, read-out: Avg. Conc. rat plasma, combined male and female",328 ng/mL
same,concentration at 1 h,[7],162 ng/mL
same,concentration at 2 h,[7],91.7 ng/mL
same,concentration at 4 h,[7],40 ng/mL
same,concentration at 6 h,"both sexes, 0.75 mg/kg, Anatabine 0.75 mg/kg, male and female, 6 hr (1st 6 hr line), n=12, read-out: Avg. Conc. rat plasma, combined male and female",19.3 ng/mL
same,concentration at 6 h,"both sexes, 0.75 mg/kg, Anatabine 0.75 mg/kg, male and female, 6 hr (2nd 6 hr line), n=6, read-out: Avg. Conc. rat plasma, combined male and female",22.5 ng/mL
same,concentration at 8 h,"both sexes, 0.75 mg/kg, Anatabine 0.75 mg/kg, male and female, 8 hr, read-out: Avg. Conc. rat plasma, combined male and female",10 ng/mL
same,concentration at 0.5 h,"both sexes, 1 mg/kg, Anatabine 1.0 mg/kg, male and female, 0.5 hr (1st 0.5 hr line), n=12, read-out: Avg. Conc. rat plasma, combined male and female",319 ng/mL
same,concentration at 0.5 h,"both sexes, 1 mg/kg, Anatabine 1.0 mg/kg, male and female, 0.5 hr (2nd 0.5 hr line), n=6, read-out: Avg. Conc. rat plasma, combined male and female",384 ng/mL
same,concentration at 1 h,[8],231 ng/mL
same,concentration at 2 h,[8],143 ng/mL
same,concentration at 4 h,[8],51.5 ng/mL
same,concentration at 6 h,"both sexes, 1 mg/kg, Anatabine 1.0 mg/kg, male and female, 6 hr (1st 6 hr line), n=12, read-out: Avg. Conc. rat plasma, combined male and female",24.3 ng/mL
same,concentration at 6 h,"both sexes, 1 mg/kg, Anatabine 1.0 mg/kg, male and female, 6 hr (2nd 6 hr line), n=6, read-out: Avg. Conc. rat plasma, combined male and female",25 ng/mL
same,concentration at 8 h,"both sexes, 1 mg/kg, Anatabine 1.0 mg/kg, male and female, 8 hr, read-out: Avg. Conc. rat plasma, combined male and female",12.7 ng/mL
same,half-life,"both sexes, 0.1 mg/kg, anatabine 0.1 mg/kg single i.v., rat plasma, M + F, read-out: t1/2 (converted)",1.44 ± 0.48 h
same,half-life,"both sexes, elimination half-life (t1/2), range over the anatabine treatment groups, anatabine 0.1-1.0 mg/kg single i.v., rats M + F",1.64 to 1.68 h
same,concentration at 0.5 h,"female, 0.1 mg/kg, Anatabine 0.1 mg/kg, female, 0.5 hr (1st 0.5 hr line), read-out: Avg. Conc. rat plasma",13 ng/mL
